Assay results: the CheMixHub viscosity set
Where “and” joins values, the source holds several entries; their conditions need not be identical. Equal values may be shown once.

Assay: xn = mol fraction of the nth substance listed

NC(=O)CC[C@H](N)C(=O)O + O
viscosity, 101 kPa
Conditions	x1 = 0.00045	x1 = 0.0009	x1 = 0.001	x1 = 0.00135	x1 = 0.001798	x1 = 0.002247	x1 = 0.002695	x1 = 0.003
298.15 K	0.897 mPa·s	–	–	0.909 mPa·s	0.915 mPa·s	–	0.9269 mPa·s	0.9238 mPa·s and 0.9238 mPa·s
303.15 K	0.8032 mPa·s	–	0.812 mPa·s	0.8135 mPa·s	0.8186 mPa·s	0.8237 mPa·s	0.8288 mPa·s	0.8262 mPa·s and 0.8262 mPa·s
308.15 K	–	0.7288 mPa·s	0.7318 mPa·s and 0.7318 mPa·s	–	–	–	0.7464 mPa·s	0.7442 mPa·s
313.15 K	–	0.6613 mPa·s	–	0.6651 mPa·s	0.6689 mPa·s	0.6727 mPa·s	0.6765 mPa·s	0.6746 mPa·s
318.15 K	0.6013 mPa·s	0.6048 mPa·s	0.6071 mPa·s	0.6082 mPa·s	0.6115 mPa·s	0.6148 mPa·s	0.6181 mPa·s	0.6166 mPa·s

O=P([O-])(O)O.[K+] + O
viscosity [mPa·s], 101 kPa
Conditions	x1 = 0.0018	x1 = 0.0054	x1 = 0.0089	x1 = 0.012	x1 = 0.016
298.15 K	0.9211	0.9772	1.037	1.11	1.186
303.15 K	0.8252	0.8757	0.9339	0.9884	1.062
308.15 K	0.7468	0.7881	0.837	0.8844	0.9335

CCOC(N)=O + c1ccncc1
298.15 K, 101 kPa
Conditions	viscosity [mPa·s]
x1 = 0.0815	1.07
x1 = 0.1351	1.202

ClCCCl + ClC(Cl)Cl
303.15 K, 101.3 kPa
Conditions	viscosity [mPa·s]
x1 = 0.0711	0.524
x1 = 0.1645	0.5402
x1 = 0.216	0.5493
x1 = 0.3322	0.5723
x1 = 0.4444	0.5947
x1 = 0.5227	0.6115
x1 = 0.6269	0.6349
x1 = 0.7591	0.6659
x1 = 0.7901	0.6733
x1 = 0.8637	0.692
x1 = 0.935	0.7102

ClCCCl + c1ccccc1
101 kPa
Conditions	viscosity [mPa·s]
293.15 K, x2 = 0.09	0.7903
293.15 K, x2 = 0.2	0.7512
293.15 K, x2 = 0.3	0.7172
293.15 K, x2 = 0.392	0.6824
293.15 K, x2 = 0.525	0.6583
293.15 K, x2 = 0.577	0.6545
293.15 K, x2 = 0.683	0.634
293.15 K, x2 = 0.81	0.636
293.15 K, x2 = 0.9	0.6404
298.15 K, x2 = 0.2	0.686
298.15 K, x2 = 0.4	0.634
298.15 K, x2 = 0.6	0.601
298.15 K, x2 = 0.8	0.59
313.15 K, x2 = 0.09	0.6098
313.15 K, x2 = 0.2	0.5936
313.15 K, x2 = 0.525	0.5387
313.15 K, x2 = 0.81	0.508

ClCCCl + CO
viscosity [mPa·s], 101 kPa
Conditions	x2 = 0.1568	x2 = 0.2369	x2 = 0.4217	x2 = 0.5374	x2 = 0.6221	x2 = 0.6906	x2 = 0.7982	x2 = 0.8393	x2 = 0.912
303.15 K	0.6585	0.6407	0.6125	0.6032	0.5936	0.5824	0.5696	0.5617	0.5488
313.15 K	0.5772	0.5596	0.5318	0.5227	0.5094	0.5005	0.4915	0.4852	0.4762
323.15 K	0.5169	0.499	0.4709	0.4587	0.4506	0.4422	0.4323	0.4255	0.4199
